Results as given in US11667649B2, “Heteroaromatic macrocyclic ether chemotherapeutic agents” (Nuvalent, Inc., priority 2020, dated 2023).

Tested on: TPM3-NTRK1-wt IC50 / primary target (e.g. CD74-ROS1-wt) IC50, Ba/F3 cells
Test: Cell assay TRKA selectivity (TRKA potency divided by primary target potency)
Type: cell-based
Settings: for TPM3-NTRK1-wt/CD74-ROS1-G2032R: TRKA selectivity ratio: TPM3-NTRK1-wt IC50 / CD74-ROS1-G2032R IC50, Ba/F3 cells; for TPM3-NTRK1-wt/CD74-ROS1-wt: TRKA selectivity ratio: TPM3-NTRK1-wt IC50 / CD74-ROS1-wt IC50, Ba/F3 cells; for TPM3-NTRK1-wt/EML4-ALK-L1196M-G1202R: TRKA selectivity ratio: TPM3-NTRK1-wt IC50 / EML4-ALK-L1196M-G1202R IC50, Ba/F3 cells; for TPM3-NTRK1-wt/EML4-ALK-wt: TRKA selectivity ratio: TPM3-NTRK1-wt IC50 / EML4-ALK-wt IC50, Ba/F3 cells
Method in brief: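 Ratio of TRKA to primary-target cellular IC50 (e.g. TPM3-NTRK1-wt/CD74-ROS1-wt), grouped into bins A >30, B >10, C ≥1, D <1. Each IC50 came from engineered Ba/F3 fusion lines grown without IL-3, dosed for 72 h and read as CellTiter-Glo luminescence, with a four-parameter logistic fit.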

Compound | TPM3-NTRK1-wt/CD74-ROS1-G2032R | TPM3-NTRK1-wt/CD74-ROS1-wt | TPM3-NTRK1-wt/EML4-ALK-L1196M-G1202R | TPM3-NTRK1-wt/EML4-ALK-wt
CC1Oc2cc(cnc2N)-c2c(cnn2C2CCC2)Cn2ccnc2-c2ccc(F)cc21 (centres unmarked) [Example 37, 3-cyclobutyl-16-fluoro-19-methyl-20-oxa-3,4,8,11,23-pentaazapentacyclo[19.3.1.0^2,^6.0^8,^12.0^13,^18]pentacosa-1(24),2(6),4,9,11,13,15,17,21(25),22-decaen-22-amine] | A (bin A for very high selectivity, ratio>30-fold) | A (bin A for very high selectivity, ratio>30-fold) | A (bin A for very high selectivity, ratio>30-fold) | A (bin A for very high selectivity, ratio>30-fold)
CCn1ncc2c1-c1cnc(N)c(c1)OC(C)c1cc(F)ccc1-n1cncc1C2 (centres unmarked) [Example 38, 3-ethyl-16-fluoro-19-methyl-20-oxa-3,4,10,12,23-pentaazapentacyclo[19.3.1.0^2,^6.0^8,^12.0^13,^18]pentacosa-1(24),2(6),4,8,10,13,15,17,21(25),22-decaen-22-amine] | A (bin A for very high selectivity, ratio>30-fold) | A (bin A for very high selectivity, ratio>30-fold) | C (bin C for moderate selectivity, ratio≥1) | B (bin B for high selectivity, ratio>10-fold)
CC1Oc2cc(cnc2N)-c2c(cnn2CCF)Cn2ccnc2-c2ccc(F)cc21 (centres unmarked) [Example 39, 16-fluoro-3-(2-fluoroethyl)-19-methyl-20-oxa-3,4,8,11,23-pentaazapentacyclo[19.3.1.0^2,^6.0^8,^12.0^13,^18]pentacosa-1(24),2(6),4,9,11,13,15,17,21(25),22-decaen-22-amine] | A (bin A for very high selectivity, ratio>30-fold) | A (bin A for very high selectivity, ratio>30-fold) | C (bin C for moderate selectivity, ratio≥1) | A (bin A for very high selectivity, ratio>30-fold)
CC1Oc2cc(cnc2N)-c2c(cnn2CC(F)F)Cn2ccnc2-c2ccc(F)cc21 (centres unmarked) [Example 40, 3-(2,2-difluoroethyl)-16-fluoro-19-methyl-20-oxa-3,4,8,11,23-pentaazapentacyclo[19.3.1.0^2,^6.0^8,^12.0^13,^18]pentacosa-1(24),2(6),4,9,11,13,15,17,21(25),22-decaen-22-amine] | A (bin A for very high selectivity, ratio>30-fold) | A (bin A for very high selectivity, ratio>30-fold) | A (bin A for very high selectivity, ratio>30-fold) | A (bin A for very high selectivity, ratio>30-fold)
CCn1ncc2c1-c1cnc(N)c(c1)OCc1cc(F)ccc1-n1nccc1C2 [Example 41, 3-ethyl-16-fluoro-20-oxa-3,4,11,12,23-pentaazapentacyclo[19.3.1.0^2,^6.0^8,^12.0^13,^18]pentacosa-1(24),2(6),4,8,10,13,15,17,21(25),22-decaen-22-amine] | A (bin A for very high selectivity, ratio>30-fold) | A (bin A for very high selectivity, ratio>30-fold) | B (bin B for high selectivity, ratio>10-fold) | A (bin A for very high selectivity, ratio>30-fold)
CCn1ncc2c1-c1cnc(N)c(c1)OC(C)c1cc(F)ccc1-c1ncncc1C2 (centres unmarked) [Example 42, 3-ethyl-17-fluoro-20-methyl-21-oxa-3,4,10,12,24-pentaazapentacyclo[20.3.1.0^2,^6.0^8,^13.0^14,^19]hexacosa-1(25),2(6),4,8(13),9,11,14,16,18,22(26),23-undecaen-23-amine] | A (bin A for very high selectivity, ratio>30-fold) | A (bin A for very high selectivity, ratio>30-fold) | B (bin B for high selectivity, ratio>10-fold) | A (bin A for very high selectivity, ratio>30-fold)
CCn1ncc2c1-c1cnc(N)c(c1)O[C@H](C)c1cc(F)ccc1-n1nncc1C2 [Example 43, (19R)-3-ethyl-16-fluoro-19-methyl-20-oxa-3,4,10,11,12,23-hexaazapentacyclo[19.3.1.0^2,^6.0^8,^12.0^13,^18]pentacosa-1(24),2(6),4,8,10,13,15,17,21(25),22-decaen-22-amine] | A (bin A for very high selectivity, ratio>30-fold) | A (bin A for very high selectivity, ratio>30-fold) | C (bin C for moderate selectivity, ratio≥1) | B (bin B for high selectivity, ratio>10-fold)
CC1Oc2cc(cnc2N)-c2c(cnn2C(F)F)Cn2ccnc2-c2ccc(F)cc21 (centres unmarked) [Example 44, 3-(difluoromethyl)-16-fluoro-19-methyl-20-oxa-3,4,8,11,23-pentaazapentacyclo[19.3.1.0^2,^6.0^8,^12.0^13,^18]pentacosa-1(24),2(6),4,9,11,13,15,17,21(25),22-decaen-22-amine] | A (bin A for very high selectivity, ratio>30-fold) | A (bin A for very high selectivity, ratio>30-fold) | C (bin C for moderate selectivity, ratio≥1) | A (bin A for very high selectivity, ratio>30-fold)
CCn1ncc2c1-c1cnc(N)c(c1)O[C@H](C)c1cc(F)ccc1-c1nc(C)cn1C2 [Example 45, (19R)-3-ethyl-16-fluoro-10,19-dimethyl-20-oxa-3,4,8,11,23-pentaazapentacyclo[19.3.1.0^2,^6.0^8,^12.0^13,^18]pentacosa-1(24),2(6),4,9,11,13,15,17,21(25),22-decaen-22-amine] | A (bin A for very high selectivity, ratio>30-fold) | A (bin A for very high selectivity, ratio>30-fold) | B (bin B for high selectivity, ratio>10-fold) | A (bin A for very high selectivity, ratio>30-fold)
CCn1ncc2c1-c1cnc(N)c(c1)O[C@H](C)c1cc(F)ccc1-n1ncc(F)c1C2 [Example 46, (19R)-3-ethyl-9,16-difluoro-19-methyl-20-oxa-3,4,11,12,23-pentaazapentacyclo[19.3.1.0^2,^6.0^8,^12.0^13,^18]pentacosa-1(24),2(6),4,8,10,13,15,17,21(25),22-decaen-22-amine] | A (bin A for very high selectivity, ratio>30-fold) | A (bin A for very high selectivity, ratio>30-fold) | C (bin C for moderate selectivity, ratio≥1) | A (bin A for very high selectivity, ratio>30-fold)
CCn1ncc2c1-c1cnc(N)c(c1)O[C@H](C)c1cc(F)ccc1-n1ncc(C#N)c1C2 [Example 47, (19R)-22-amino-3-ethyl-16-fluoro-19-methyl-20-oxa-3,4,11,12,23-pentaazapentacyclo[19.3.1.0^2,^6.0^8,^12.0^13,^18]pentacosa-1(24),2(6),4,8,10,13,15,17,21(25),22-decaene-9-carbonitrile] | A (bin A for very high selectivity, ratio>30-fold) | A (bin A for very high selectivity, ratio>30-fold) | C (bin C for moderate selectivity, ratio≥1) | B (bin B for high selectivity, ratio>10-fold)
